{
  "source": "patent US20210322545A1",
  "about": "(priority 2016, published 2021)",
  "tested_on": "cancer cell lines",
  "format": "cell-based",
  "data": [
    {"substance": "IFNα", "values": [
      {"measurement": "synergy with SMC using recombinant cytokines", "result": "recapitulated"}
    ]},
    {"substance": "IFNγ", "values": [
      {"measurement": "synergy with SMC using recombinant cytokines", "result": "recapitulated"}
    ]}
  ]
}
